The results in this text go back to ChEMBL document CHEMBL2086308, “Cytotoxic 2-phenyacrylnitriles, the importance of the cyanide moiety and discovery of potent broad spectrum cytotoxic agents” (2012).

What all share (assay type): functional
One test deals with HT-29. Kind of test: Growth inhibition of human HT-29 cells assessed as reduction in cell growth at 25uM after 72 hrs by MTT assay. The conditions noted are these: HT-29, 72 h, read-out: GI.
The subject of a further test is SW480. Briefly: Growth inhibition of human SW480 cells assessed as reduction in cell growth at 25uM after 72 hrs by MTT assay. The conditions noted are these: SW480, 72 h, read-out: GI.
For another test, the system named is MCF7. Briefly: Growth inhibition of human MCF7 cells assessed as reduction in cell growth at 25uM after 72 hrs by MTT assay. The conditions noted are these: MCF7, 72 h, read-out: GI.
A further test concerns A2780. Kind of test: Growth inhibition of human A2780 cells assessed as reduction in cell growth at 25uM after 72 hrs by MTT assay. The conditions noted are these: A2780, 72 h, read-out: GI.
The next test has as its system NCI-H460. Briefly: Growth inhibition of human H460 cells assessed as reduction in cell growth at 25uM after 72 hrs by MTT assay. The conditions noted are these: NCI-H460, 72 h, read-out: GI.
Another test has as its system A-431. Briefly: Growth inhibition of human A431 cells assessed as reduction in cell growth at 25uM after 72 hrs by MTT assay. The conditions noted are these: A-431, 72 h, read-out: GI.
A further test deals with DU-145. Kind of test: Growth inhibition of human DU145 cells assessed as reduction in cell growth at 25uM after 72 hrs by MTT assay. To be noted: DU-145, 72 h, read-out: GI.
A short description of test [1]: Growth inhibition of human BE(2)-C cells assessed as reduction in cell growth at 25uM after 72 hrs by MTT assay. To be noted: read-out: GI.
Test [2] in a line: Growth inhibition of human SJ-G2 cells assessed as reduction in cell growth at 25uM after 72 hrs by MTT assay. The conditions noted are these: SJ-G2, 72 h, read-out: GI.
In the next test the test system is MIA PaCa-2. Briefly: Growth inhibition of human MIAPaCa2 cells assessed as reduction in cell growth at 25uM after 72 hrs by MTT assay. To be noted: MIA PaCa-2, 72 h, read-out: GI.
Test [3] is described as follows: Growth inhibition of mouse SMA cells assessed as reduction in cell growth at 25uM after 72 hrs by MTT assay. To be noted: read-out: GI.

Molecules are shown by their SMILES.

On to `N#C/C(=C\c1ccc(-c2ccccc2)o1)c1ccc(Cl)c(Cl)c1`, for which the inhibition of growth at 25 µM in the test with HT-29 was 15%; in the test with SW480, below 10%; in the test on MCF7, below 10%; with A2780, 13%; in the test with NCI-H460 it was 11%; in the test with A-431, below 10%. Besides, the inhibition of growth at 25 µM (in the test with DU-145; in test [1]; in [2]; in the test on MIA PaCa-2; in test [3]) was below 10% throughout.
`N#C/C(=C\c1ccc(CO)o1)c1ccc(Cl)c(Cl)c1`: the inhibition of growth at 25 µM in the test on HT-29 was 41%; in the test on SW480, below 10%; in the test on MCF7, 27%; with A2780 it was 25%; in the test on NCI-H460 it was 30%; in the test on A-431 it was below 10%. In addition, the inhibition of growth at 25 µM with DU-145 was below 10%; in test [1], below 10%; in [2], 27%; in the test with MIA PaCa-2 it was below 10%; in test [3], 16%.
For `N#C/C(=C\c1cc2ccccc2o1)c1ccc(Cl)c(Cl)c1`, the inhibition of growth at 25 µM is 43% in the test with HT-29; 43% in the test on SW480; 40% with MCF7; 49% in the test on A2780; 36% with NCI-H460; 54% in the test with A-431. The inhibition of growth at 25 µM in the test on DU-145 was 14%; in [1], 20%; in test [2] it was 46%; in the test with MIA PaCa-2 it was 47%; in test [3] it was 55%.
On to `Cc1ccc(/C=C(\C#N)c2ccc(Cl)c(Cl)c2)o1`, for which the inhibition of growth at 25 µM with HT-29 worked out at 58%; in the test on SW480 it was 47%; with MCF7, 68%; in the test with A2780 it was 43%; in the test with NCI-H460 it was 40%; with A-431, 46%. For the same compound, the inhibition of growth at 25 µM in the test on DU-145 was below 10%; in test [1], 50%; in test [2], 32%; in the test with MIA PaCa-2 it was 36%; in test [3], 33%.
Turning to `N#C/C(=C\c1c[nH]c2ccc(C#N)cc12)c1ccc(Cl)c(Cl)c1`, the inhibition of growth at 25 µM is 57% with HT-29; 43% with SW480; 38% in the test with MCF7; 47% in the test on A2780; 33% in the test with NCI-H460; 34% in the test with A-431. Further, the inhibition of growth at 25 µM in the test on DU-145 worked out at 18%; in test [1] it was 50%; in [2] it was 44%; with MIA PaCa-2, 43%; in [3], 44%.
